The record followed here is patent US20240174674A1, “NITROGEN-CONTAINING POLYCYCLIC FUSED RING COMPOUND, PHARMACEUTICAL COMPOSITION THEREOF, PREPARATION METHOD THEREFOR, AND USE THEREOF” (APPLIED PHARMACEUTICAL SCIENCE, INC., priority 2021, published 2024).

Where two headings read alike, the source gives them in different places.

For the assay, the target named is RET G810R (Homo sapiens (Human), UniProt P07949, G810R). As to the kind of experiment: HTRF KinEASE-TK kinase activity test, RET G810R. The conditions noted are these: for inhibitory activity against RET G810R relative to that of selpercatinib (LOXO-292): fold versus selpercatinib (LOXO-292). In general terms: In TR-FRET formats the signal depends on donor and acceptor labels being close together.
Sequence of RET G810R (P07949 29-1114 G810R): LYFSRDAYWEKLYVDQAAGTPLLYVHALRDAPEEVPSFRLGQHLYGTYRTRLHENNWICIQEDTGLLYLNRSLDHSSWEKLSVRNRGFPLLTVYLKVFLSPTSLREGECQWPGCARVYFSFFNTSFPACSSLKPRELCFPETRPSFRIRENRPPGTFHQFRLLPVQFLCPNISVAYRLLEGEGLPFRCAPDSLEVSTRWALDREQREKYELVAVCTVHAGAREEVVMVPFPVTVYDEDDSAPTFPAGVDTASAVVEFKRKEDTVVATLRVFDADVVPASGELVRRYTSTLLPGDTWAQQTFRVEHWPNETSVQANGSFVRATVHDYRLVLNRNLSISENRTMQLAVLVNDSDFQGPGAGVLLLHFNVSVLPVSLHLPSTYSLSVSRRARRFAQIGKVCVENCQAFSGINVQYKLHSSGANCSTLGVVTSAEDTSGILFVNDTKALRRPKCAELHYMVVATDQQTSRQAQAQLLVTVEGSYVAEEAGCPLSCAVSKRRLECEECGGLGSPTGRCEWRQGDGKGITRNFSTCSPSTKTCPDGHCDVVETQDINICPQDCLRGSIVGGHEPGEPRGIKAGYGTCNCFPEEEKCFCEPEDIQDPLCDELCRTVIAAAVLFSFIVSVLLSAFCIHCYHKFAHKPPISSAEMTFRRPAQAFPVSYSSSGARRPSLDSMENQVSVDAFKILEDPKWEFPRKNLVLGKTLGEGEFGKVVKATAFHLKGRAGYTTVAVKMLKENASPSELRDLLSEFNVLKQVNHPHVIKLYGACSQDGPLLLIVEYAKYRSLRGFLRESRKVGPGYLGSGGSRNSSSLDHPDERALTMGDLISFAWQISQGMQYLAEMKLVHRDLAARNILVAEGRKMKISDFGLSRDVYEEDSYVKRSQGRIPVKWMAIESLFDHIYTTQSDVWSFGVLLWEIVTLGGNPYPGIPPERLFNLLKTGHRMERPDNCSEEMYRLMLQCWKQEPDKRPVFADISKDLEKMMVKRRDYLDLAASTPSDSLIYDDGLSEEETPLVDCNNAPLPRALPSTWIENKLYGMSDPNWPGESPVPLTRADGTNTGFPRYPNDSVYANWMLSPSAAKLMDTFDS

Setting [1] is: read-out: RET G810R IC50, HTRF kinase assay.

Take `CCOc1cc(-c2ccc(N3CC[C@H](NC(=O)c4c(F)ccc(F)c4F)[C@H](O)C3)nc2)c2c3cn[nH]c3nn2c1` [Compound 274, N-((3R,4S)-1-(5-(6-ethoxy-1H-pyrazolo[3′,4′:3,4]pyrazolo[1,5-α]pyridin-4-yl)pyridin-2-yl)-3-hydroxypiperidin-4-yl)-2,3,6-trifluorobenzamide]: the “inhibitory activity against RET G810R relative to that of selpercatinib (LOXO-292)” value was at least 10 times. For the same compound, the IC50 (as a rule, the concentration needed to halve the response being measured) under setting [1] is 1.3 nM.
For `CCOc1cc(-c2ccc(N3C[C@H]4C[C@H](NC(=O)c5c(F)cccc5Cl)C[C@H]4C3)nc2)c2c3cn[nH]c3nn2c1` [Compound 174], the “inhibitory activity against RET G810R relative to that of selpercatinib (LOXO-292)” value is listed as at least 10 times. In addition, the IC50 under setting [1] was 3.5 nM.
In the case of `O=C(N[C@H]1CCN(c2ccc(-c3cc(OCCF)cn4nc5[nH]ncc5c34)cn2)C[C@@H]1O)c1c(F)cccc1F` [Compound 295, N-((3S,4S)-1-(5-(6-(2-fluoroethoxy)-1H-pyrazolo[3′,4′:3,4]pyrazolo[1,5-α]pyridin-4-yl)pyridin-2-yl)-3-hydroxypiperidin-4-yl)-2,6-difluorobenzamide], the “inhibitory activity against RET G810R relative to that of selpercatinib (LOXO-292)” value is reported as at least 10 times. Also, the IC50 under setting [1] turned out to be 2.1 nM.
The matching figures for `CCOc1cc(-c2ccc(N3CC[C@H](NC(=O)c4c(C)cccc4Cl)[C@H](O)C3)nc2)c2c3cn[nH]c3nn2c1` [Compound 278, 2-chloro-N-((3R,4S)-1-(5-(6-ethoxy-1H-pyrazolo[3′,4′:3,4]pyrazolo[1,5-α]pyridin-4-yl)pyridin-2-yl)-3-hydroxypiperidin-4-yl)-6-methylbenzamide]: at least 10 times and 0.9 nM.
`C=CC(=O)N1C2CC1CN(c1ccc(-c3cc(OCC)cn4nc5[nH]ncc5c34)cn1)C2` [Compound 250, 1-(3-(5-(6-ethoxy-1H-pyrazolo[3′,4′:3,4]pyrazolo[1,5-α]pyridin-4-yl)pyridin-2-yl)-3,6-diazabicyclo[3.1.1]heptan-6-yl)prop-2-en-1-one]: the IC50 under setting [1] was found to be 40.8 nM.
Regarding `CCOc1cc(-c2ccc(N3C[C@H]4CN(C(=O)c5c(F)cccc5Cl)C[C@H]4C3)nc2)c2c3cn[nH]c3nn2c1` [Compound 118, N-((3aR,6aS)-5-(5-(6-ethoxy-1H-pyrazolo[3′,4′:3,4]pyrazolo[1,5-α]pyridin-4-yl)pyridin-2-yl)hexahydropyrrolo[3,4-c]pyrrol-2(1H)-yl)-2-chloro-6-fluorobenzamide], under setting [1], the IC50 came to 7.7 nM.
In turn, `CCOc1cc(-c2ccc(N3CC[C@H](NCc4c(F)cccc4Cl)[C@@H](O)C3)nc2)c2c3cn[nH]c3nn2c1` [Compound 107, (3S,4S)-4-((2-chloro-6-fluorobenzyl)amino)-1-(5-(6-ethoxy-1H-pyrazolo[3′,4′:3,4]pyrazolo[1,5-α ]pyridin-4-yl)pyridin-2-yl)piperidin-3-ol] registered an IC50 of 14.5 nM.
For `CCOc1cc(-c2ccc(N3CC[C@H](NC(=O)c4cc(F)ccc4C)[C@H](O)C3)nc2)c2c3cn[nH]c3nn2c1` [Compound 277, N-((3R,4S)-1-(5-(6-ethoxy-1H-pyrazolo[3′,4′:3,4]pyrazolo[1,5-α]pyridin-4-yl)pyridin-2-yl)-3-hydroxypiperidin-4-yl)-5-fluoro-2-methylbenzamide], the “inhibitory activity against RET G810R relative to that of selpercatinib (LOXO-292)” value was at least 10 times. Moreover, the 50% inhibitory concentration (IC50) under setting [1] stood at 1.2 nM.
As to `CCOc1cc(-c2ccc(N3C[C@@H]4C5CCC([C@@H]4C3)N5C(=O)c3c(F)cccc3Cl)nc2)c2c3cn[nH]c3nn2c1` [Compound 180, (2-chloro-6-fluorophenyl)((3aR,7aS)-2-(5-(6-ethoxy-1H-pyrazolo[3′,4′:3,4]pyrazolo[1,5-α]pyridin-4-yl)pyridin-2-yl)octahydro-1H-4,7-epiminoisoindol-8-yl)methanone], under setting [1], the half-inhibitory concentration (IC50) was found to be 9.7 nM.
For `COc1ccc(CN2C3CC2CN(c2ccc(-c4cc(OCC(=O)O)cn5nc6[nH]ncc6c45)cn2)C3)cn1` [Compound 240, 2-((4-(6-(6-((6-methoxypyridin-3-yl)methyl)-3,6-diazabicyclo[3.1.1]heptan-3-yl)pyridin-3-yl)-1 H-pyrazolo[3′,4′:3,4]pyrazolo[1,5-α]pyridin-6-yl)oxy)acetic acid], half-maximal inhibition (IC50) was put at 4 nM.
Take `CCOc1cc(-c2ccc(N3CCC(CN4CCC4)(C(=O)NCC(C)C)CC3)nc2)c2c3cn[nH]c3nn2c1` [Compound 36, 4-(azetidin-1-ylmethyl)-1-(5-(6-ethoxy-1H-pyrazolo[3′,4′:3,4]pyrazolo[1,5-α]pyridin-4-yl)pyridin-2-yl)-N-isobutylpiperidine-4-carboxamide]: the IC50 under setting [1] is 5.7 nM.
Take `CCOc1cc(-c2ccc(N3CC[C@H](NC(=O)c4ccccc4C(F)(F)F)[C@H](O)C3)nc2)c2c3cn[nH]c3nn2c1` [Compound 279, N-((3R,4S)-1-(5-(6-ethoxy-1H-pyrazolo[3′,4′:3,4]pyrazolo[1,5-α]pyridin-4-yl)pyridin-2-yl)-3-hydroxypiperidin-4-yl)-2-(trifluoromethyl)benzamide]: the “inhibitory activity against RET G810R relative to that of selpercatinib (LOXO-292)” value was at least 10 times. For the same compound, the half-inhibitory concentration (IC50) under setting [1] was found to be 2.2 nM.
In the case of `CCOc1cc(-c2ccc(N3C[C@@H]4[C@H](C3)[C@H]4NC(=O)c3c(F)cccc3Cl)nc2)c2c3cn[nH]c3nn2c1` [Compound 170, 2-chloro-N-((1R,5S,6S)-3-(5-(6-ethoxy-1H-pyrazolo[3′,4′:3,4]pyrazolo[1,5-α]pyridin-4-yl)pyridin-2-yl)-3-azabicyclo[3.1.0]hexan-6-yl)-6-fluorobenzamide], the IC50 under setting [1] is 27.3 nM.
Same read-out and setting: the value for `CCOc1cc(-c2ccc(N3CCC4(CN(C(=O)c5c(F)cccc5Cl)C4)C3)nc2)c2c3cn[nH]c3nn2c1` [Compound 220, N-(6-(5-(6-ethoxy-1H-pyrazolo[3′,4′:3,4]pyrazolo[1,5-α]pyridin-4-yl)pyridin-2-yl)-2,6-diazaspiro [3.4]octan-2-yl)-2-chloro-6-fluorobenzamide] was 26.2 nM.
As for `CCOc1cc(-c2ccc(N3CCC(CO)(NC(=O)c4ncccc4Cl)CC3)nc2)c2c3cn[nH]c3nn2c1` [Compound 12, 3-chloro-N-(1-(5-(6-ethoxy-1H-pyrazolo[3′,4′:3,4]pyrazolo[1,5-α]pyridin-4-yl)pyridin-2-yl)-4-(hydroxymethyl)piperidin-4-yl)picolinamide], the “inhibitory activity against RET G810R relative to that of selpercatinib (LOXO-292)” value was at least 10 times. In addition, the 50% inhibitory concentration (IC50) under setting [1] was 2.1 nM.
`CCOc1cc(-c2ccc(N3CCC4(CCN(C(=O)c5c(F)cccc5Cl)C4)CC3)nc2)c2c3cn[nH]c3nn2c1` [Compound 208, N-(8-(5-(6-ethoxy-1H-pyrazolo[3′,4′:3,4]pyrazolo[1,5-α]pyridin-4-yl)pyridin-2-yl)-2,8-diazaspiro [4.5]decan-2-yl)-2-chloro-6-fluorobenzamide]: under setting [1], the IC50 is 24.1 nM.
On the same count and under the same terms, in the case of `CCOc1cc(-c2ccc(N3CC4CCC(C3)N4C(=O)c3c(F)cccc3Cl)nc2)c2c3cn[nH]c3nn2c1` [Compound 155, (2-chloro-6-fluoro)((1R,5S)-3-(5-(6-ethoxy-1H-pyrazolo[3′,4′:3,4]pyrazolo[1,5-α]pyridin-4-yl)pyridin-2-yl)-3,8-diazabicyclo[3.2.1]octan-8-yl)benzamide] it was 14.2 nM; in that of `CCOc1cc(-c2ccc(N3CC4(CCCN4Cc4ccc(OC)nc4)C3)nc2)c2c3cn[nH]c3nn2c1` [Compound 188, 6-ethoxy-4-(6-(5-((6-methoxypyridin-3-yl)methyl)-2,5-diazaspiro[3.4]octan-2-yl)pyridin-3-yl)-1 H-pyrazolo[3′,4′:3,4]pyrazolo[1,5-α]pyridine], 16.9 nM.
